US20040176466A1, “Combination therapy for the treatment of neurological disorders” (priority 2001, published 2004)
Values joined by “and” are separate entries in the source; they are usually repeats but may differ in a detail not shown here. Equal values may be shown once. Read-outs that look alike come from different tables or passages of the source.

How the values were obtained:
ADHD = assay: Study of atomoxetine versus placebo in the treatment of ADHD; format: in vivo, human
Text: Inter-individual variability in drug metabolism poses a challenge in predicting dosing, safety, and efficacy of a drug. Pharmacokinetic factors, as well as substantial intersubject pharmacodynamic variability, have been proposed as a factor in cases of therapeutic failure of methylphenidate (DeVane, et al., Journal of Clinical Psychopharmacology, 20(3), 347 (2000)).

[1] = cited from earlier work
[2] = Steady-state pharmacokinetics of atomoxetine alone and coadministered with paroxetine in CYP2D6 extensive metabolizers; format: in vivo; conditions: both sexes, human, plasma, oral; for AUC: read-out: AUC0-τ; for Vd/F: read-out: Vz/F
Procedure: The study was conducted at the Lilly Laboratory for Clinical Research in Indianapolis, Ind. The protocol and informed consent documents were approved by the Institutional Review Board of Indiana University—Purdue University at Indianapolis. The study was conducted in accordance with the Declaration of Helsinki. All participants provided informed written consent before enrollment into the study. All volunteers were considered to be healthy on the basis of medical history, electrocardiographic findings, and routine clinical laboratory tests. Volunteers with clinically abnormal results were excluded from the study.
Only CYP2D6 extensive metabolizers, as determined by genotyping and phenotyping analyses, were entered in this study. CYP2D6 genotype was performed by PPGx (Morrisville, N.C.). DNA from whole blood samples were isolated and purified and analyzed for CYP2D6 genotype using a validated PCR ([…]) method. CYP2D6 genotype was evaluated by testing the *3, *4, *5, *6, *7, and *8 poor metabolizer (PM) alleles. If patients were homozygous for any combination of these alleles, a PM genotype was assigned; otherwise, an extensive metabolizer genotype (EM) was assigned. CYP2D6 phenotype was performed using the urine ratio of dextromethorphan/dextrorphan following an oral dose of dextromethorphan. Volunteers with a ratio greater than 0.3 were assigned a PM phenotype, and those with a ratio less than 0.3 were assigned an EM phenotype.
This was a single-blind, sequential study composed of two periods. […] Doses were administered with 240 mL of water.
Pharmacokinetic parameter estimates were calculated with noncompartmental analysis by using WinNonlin Professional Version 2.1 (Pharsight Corp, Mountain View, Calif.). The steady state maximum plasma concentration (Css,max), and the corresponding time of the maximum concentration (Tmax) were observed values. The elimination rate constant (λz) was determined as the slope of the linear regression for the terminal log-linear portion of the concentration-time curve. Terminal half-life (t1/2) was calculated as ln(2)/λz. The area under the plasma concentration time curve (AUC0-τ) over the dosing interval was estimated by the linear trapezoidal method. […] Apparent clearance (CLss/F) and apparent volume of distribution (Vz/F) were calculated as Dose/AUC0-τ and as (CLss/F)/λz, respectively.
Except for Tmax, all parameters were log transformed, and a mixed-effect analysis of variance was performed with subject as a random effect. […] For Tmax, a Wilcoxon sign-rank test was performed. Data from all subjects who received study drug are included in the pharmacokinetic and statistical analyses, except for the Tmax analyses that excluded subjects with measurements for only one treatment. Statistical analyses were performed with SAS Version 6.12 (SAS Institute, Cary, N.C.).

half-life ([2]; 20 mg, atomoxetine alone): 3.92 h | half-life ([2]; 20 mg, atomoxetine alone (Period 1), steady state, mean (range), n = 21): 4.03 h | Tmax ([2]; 20 mg, atomoxetine alone (Period 1), steady state, median (range), n = 21, read-out: Tmax): 1 h | AUC ([2]; 20 mg): 846 ng·h/mL | Vd/F ([2]; 20 mg): 2.2 L/kg | half-life ([2]; after concomitant paroxetine administration): 10 h | half-life ([2]; atomoxetine with paroxetine (Period 2), steady state, mean (range), n = 14): 11 h | Tmax ([2]; atomoxetine with paroxetine (Period 2), steady state, median (range), n = 14, read-out: Tmax): 1.5 h | Tmax ([2]; atomoxetine with paroxetine versus atomoxetine alone, read-out: median of the paired difference in Tmax): 0.5 h | AUC [2]: 5970 ng·h/mL | Vd/F [2]: 0.803 L/kg
SMILES: CNCC[C@@H](Oc1ccccc1C)c1ccccc1 [Atomoxetine, (R)-(−)-N-methyl-3-(2-methylphenoxy)-3-phenylpropylamine]
response to atomoxetine treatment (ADHD; poor metabolizer ADHD patients): greater response | efficacy in the treatment of ADHD versus placebo (ADHD; regardless of CYP2D6 status, extensive or poor metabolizer): robustly better than placebo | mean half-life ([1]; majority of patients): 4.5 ± 1.1 h | half-life ([1]; two patients (second class of kinetic disposition)): 17.1 h and 21 h
